Source: patent US8445461B2, “Pharmaceutical composition for meniere's disease” (Setsuko Takeda, priority 2007, dated 2013)

Tests used:
[1] = system: guinea pigs excreting normal feces; assay: Antidiarrheal effect: observation of feces after oral administration of saccharides or sugar alcohols with or without polysaccharides (Example 1); assay type: in vivo
Experimental: The criteria for analyzing the conditions of feces (hardness, shape and spaces of feces in the intestine) are as shown in Table 2:
The hardness and microscopic findings of feces from the group administered with distilled water were assessed as “Normal” scoring 3, the feces having normal shape and the shape could rather easily change by pushing with fingers were assessed as “Slightly soft” scoring 2, those of which the shape had already changed or it could quite easily change by pushed with fingers were assessed as “Soft” scoring 1, and those of which the shape is muddy or watery or of no shape were assessed “Muddy” scoring 0. To be precese, there are no watery feces because of the nature of diets and thus the muddy feces correspond to watery and muddy feces in human.
Since the muddy feces comprise large content of water, they induce the high abdominal pressure and the flatulence and distension. […] In the case of gas generation, it appears that noxious symptom such as the flatulence and distension are synergistically deteriorated. Therefore, we assessed not only based on the hardness of feces, but also the size, smoothness of the surface and amount of feces.
In these experiments, I observed is the diarrhea caused by saccharides or sugar alcohols and antidiarrhreal effect of saccharides. Guinea pigs orally received saccharides or sugar alcohols, for example tetrose such as erythritol, pentose such as xylitol or xylose, hexose such as isosorbitol or the like in combination with or without polysaccharides for observation of the feces up to 6 hours after the administration.
Guinea pigs (body weight 280 to 320 g, normal feces) were divided into four groups: for Group 1-a, xylitol alone (Reference Example 1), or xylitol and xanthan gum or pectin; for Group 1-b, xylose alone (Reference Example 2), xylose and xanthan gum or pectin; for Group 1-c, erythritol alone (Reference Example 3), erythritol and pectin, erythritol and xanthan gum, or erythritol, pectin and natural aluminum silicate gel or calcium carbonate; and for Group 1-d, isosorbitol alone (Reference Example 4), or isosorbitol and xanthan gum or pectin were orally administered, respectively. The compounds are dissolved in distilled water and 8 ml/kg of said solution were administered as a single dose.
The feces were observed during 6 hours after the administration. When the animals fell into the most serious condition, the hardness and shape of the feces from said animals were assessed as the effect by saccharides or sugar alcohols in the animals.

[2] = system: guinea pigs excreting normal feces; assay: as above; assay type: in vivo; conditions: maltitol 2.8 g/kg oral, alone or with additive; average of 4 animals; score 0 muddy to 4 hard
endolymphatic hydrops = conditions: systemic administration; cited from earlier work
[3] = active agent 2.8 g/kg oral, alone or with additive of the label
[4] = maltitol 2.8 g/kg oral, alone or with additive of the label (Table 6)
[5] = maltitol 2.8 g/kg oral, alone or with additive, average of 4 animals, score 0 muddy to 4 hard

Abdominal distension / gas by inspections and palpations [1, 3]	Time after administration when diarrhea / softening of feces started [1, 3]	Time after administration when feces recovered to (almost) normal [1, 3]	Hardness of feces: Hard (number of animals) [1, 4]	Hardness of feces: Muddy (number of animals) [1, 4]	Hardness of feces: Normal (number of animals) [1, 4]	Hardness of feces: Slightly soft (number of animals) [1, 4]	Hardness of feces: Soft (number of animals) [1, 4]	Hardness of feces (average score), 1 hr after the administration [1, 5]	Hardness of feces (average score), 2 hr after the administration [1, 5]	Hardness of feces (average score), 3 hr after the administration [1, 5]	Hardness of feces (average score), 4 hr after the administration [1, 5]	Hardness of feces (average score), 5 hr after the administration [1, 5]	Hardness of feces (average score), 6 hr after the administration [1, 5]	Hardness of feces (average score), 12 hr after the administration [2]	Hardness of feces (average score), 18 hr after the administration [2]	Hardness of feces (average score), 24 hr after the administration [2]	SMILES	Decompression effect on endolymphatic hydrops (endolymphatic hydrops)	Effect in the normal ear (endolymphatic hydrops)
abdominal distension was observed	3 h	≥ 24 h	0	6	0	0	0	3	2.3	1.7	0.2	0	0	0	1.2	2.5	OC[C@@H](O)[C@@H](O[C@H]1O[C@H](CO)[C@@H](O)[C@H](O)[C@H]1O)[C@H](O)[C@@H](O)CO [Maltitol, maltitol]		
																	Cc1ccccc1C(=O)Nc1ccc(C(=O)N2CCCC(N(C)C)c3ccccc32)cc1 (stereo not shown) [OPC 31260]	did not reveal the decompression effect	formation of endolymphatic hydrops in the normal ear
